Experiments:
[1] = tested on: MMP13 expression in SW1353 chondrosarcoma cell line; assay: MMP13 assay: IL-1/OSM-driven MMP13 expression in SW1353 cells (MMP13 ELISA); format: cell-based; settings: Homo sapiens, IL-1β and OSM, 48 hr
Experimental: The protocol of the MMP13 ELISA is described in section 4.1, then testing of compounds on release of IL-1/OSM-driven MMP13 expression in SW1353 chondrosarcoma cell line is described in section 4.2.
A 384 well format ELISA for measurement of MMP13 was developed. Various primary antibodies were tested, as well as various ELISA protocols. The following protocol is developed and validated to measure MMP13 levels in supernatant of cell cultures in 384 well plates.
Black maxisorb 384 well plates (Nunc 460518) are coated with 35 μl of a buffered solution containing 1.5 μg/mL anti-MMP13 antibody MAB511 (R&D systems). The antibody is diluted in carbonate-bicarbonate coating buffer (1.59 g Na2CO3 (Sigma S-7795) and 2.93 g NaHCO3 (Sigma S-5761) in 1 L MilliQ water, adjusted to pH 9.6). After overnight incubation at 4° C., wells are washed twice with 100 μL PBST (80 g NaCl, 2 g KCl (Sigma), 11.5 g Na2HPO4.7H2O and 2 g KH2PO4 in 10 L milliQ water; pH 7.4+0.05% Tween-20 (Sigma)) and blocked with 100 μL/well blocking buffer (5% non fat dry milk in PBS). After overnight incubation at 4° C., wells are washed twice with 100 μL PBST. The PBST is removed and 35 μL of sample is transferred to the ELISA plates. After 4 hr incubation at RT, plates are washed twice with PBST and incubated for 1 hr at 37° C. with 35 μL/well 1.5 mM APMA solution (a 10 mM APMA stock solution is prepared one day before (35.18 mg APMA (Sigma A-9563) in 10 mL 0.1M NaOH (Merck 1.06469.1000) and stored at 4° C. Before use, the 10 mM APMA stock solution is diluted to 1.5 mM in 1×APMA buffer (10× APMA buffer: 500 mM Tris (Roche 708976), 50 mM CaCl2 (Sigma C-5080), […] ZnCl2 (Sigma Z-0173), 1.5 M NaCl (Calbiochem 567441), 0.5% Brij35 (Sigma 430 AG-6) and adjust to pH 7.0). After activation of MMP13 by APMA, plates are washed again two times with 100 μL PBST/well and 35 μL of substrate solution is added to each well. Substrate solution is prepared as follows: OmniMMP Fluorescent substrate (Biomol P-126) stock solution (2 mM in DMSO, stored at −20° C.) is diluted in 1× OmniMMP buffer (10× OmniMMP buffer: 500 mM Hepes (Sigma H4034), 100 mM CaCl2 (Sigma C5080), 0.5% Brij35 (Sigma 430 AG-6; adjusted to pH 7.0) to a final concentration of 0.01 mM. After an overnight incubation at 37° C., the active MMP13 in the sample has cleaved the substrate and released fluorescence. Readout is performed on the EnVision (Perkin Elmer) using 320 nm excitation/405 nm emission filters.
Human chondrosarcoma cell line SW1353 was acquired from ATCC and grown in DMEM supplemented with 10% heat-inactivated FBS and 1× penicillin/streptomycin (Invitrogen) in a humidified 5% CO2 incubator at 37° C. Aliquots of the cells were frozen and cryopreserved in liquid nitrogen. Starting from a cryopreserved aliquot, cells are further grown by sub-culturing at a 1/5-1/8 ratio twice a week by trypsinisation.
Starting from the compound master stocks (all at 10 mM concentration in 100% DMSO) a 3-fold serial dilution is made in 96-well plates in 100% DMSO. Then, plates are futher diluted 50-fold in M199 medium supplemented with 1% heat-inactivated FBS to obtain an intermediate work stock.
At day 1, SW1353 cells are seeded in 96-well plates (flat bottom, tissue culture treated, Greiner) at a density of 15000 cells/well in 120 μL growth medium. The next day, 15 μL compound out of the intermediate work stock is added. After an incubation period of 60 minutes, which allows the compounds to equilibrate and enter the cells, cells are stimulated with a mixture of IL-1β and OSM, added in a volume of 15 μL to obtain final concentrations of 1 ng/ml IL-1β and 25 ng/ml OSM. For that, stocks of IL-1 (10 μg/ml) and OSM (25 μg/ml) (both PeproTech) were diluted to 10 ng/ml and 250 ng/ml respectively, in M199 medium supplemented with 1% FBS. After incubation for 48 hr, the cell supernatant was harvested and an appropriate dilution was processed in the MMP13 ELISA as described above, delivering raw data (RFU: relative fluorescence units). […]

[2] = Tolerability of compounds in healthy mice (body weight); format: in vivo; settings: 100 mg/kg/d, po, up to two weeks, DBA/1J mice, FIG. 6A
Experimental: This protocol is designed to assess the tolerability of the compounds of the invention in healthy DBA/1J mice to determine the “therapeutic window” as defined by the dosing range between efficacious (mouse therapeutic Collagen-Induced Arthritis model) and toxic doses.
Compounds are prepared for a dosing regimen of 100 mg/kg/d, po, free base, in a standard volume of injection of 0.1 mL/10 g of mice (equivalent to 10 mg/1 mL). For solution preparations, compounds were dissolved in 0.5% methyl-cellulose and 1% DMSO, once a week.
Groups are randomized based on body weight and treated for up to two weeks. Each group contained 5 mice and received either test compound at 100 mg/kg, a comparison compound at 100 mg/kg/d (Compound A) or vehicle on a daily basis in a dosing volume of 200 μL per mouse.
Potential drug toxicity is monitored by observation every day and by recording body weights three times a week for weight loss. All statistical analyses were performed using Student's t test.
To assess the general tolerability of the treatments, the total body weight is followed throughout the course of the study.

With `CC(C)N1C[C@@H]2C[C@H]1CN2c1ccc(Nc2ncc(-c3ccc4c(c3)CNC4=O)n3ncnc23)cc1` [Compound 1, 5-{8-[4-((1S,4S)-5-Isopropyl-2,5-diaza-bicyclo[2.2.1]hept-2-yl)-phenylamino]-[1,2,4]triazolo[1,5-a]pyrazin-5-yl}-2,3-dihydro-isoindol-1-one] as the compound, how does the IC50 [1] read?
The IC50 was > 1000 nM.

And the “General tolerability: total body weight compared to the vehicle” value [2]?
Its value is “no statistically significant difference”.

With `CC(C)N1C[C@@H]2C[C@H]1CN2c1ccc(Nc2ncc(-c3coc(C(N)=O)c3)n3ncnc23)cc1` [Compound 2, 4-{8-[4-((1S,4S)-5-Isopropyl-2,5-diaza-bicyclo[2.2.1]hept-2-yl)-phenylamino]-[1,2,4]triazolo[1,5-a]pyrazin-5-yl}-furan-2-carboxamide] as the compound, how does the IC50 [1] read?
The IC50 was 1 to 500 nM.

What about the “General tolerability: total body weight compared to the vehicle” value [2] of the same compound?
Its value is “no statistically significant difference”.
